Measured values from patent US10131652B2, “Pyrimidinyloxy benzene derivatives as herbicides” (E. I. DU PONT DE NEMOURS AND COMPANY, priority 2014, dated 2018).
Where two headings read alike, the source gives them in different places.

Key:
Experiment in all cases: Test F pre-/postemergence plant response
Format in all cases: in vivo
[1] = system: dayflower (Virginia (VA) dayflower, Commelina virginica); conditions: Commelina virginica, scale 0 to 100, read-out: Plant response rating, Dayflower, VA
Procedure, shortened: (§1)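 Plant response is a visual score from 0, meaning no effect, to 100, meaning complete control, assigned by comparison with untreated plants. Ratings were made 14 to 21 days after preemergence application to seeded silt loam or postemergence application to plants at the 1- to 4-leaf stage.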

[2] = system: field bindweed (Convolvulus arvensis); conditions: Convolvulus arvensis, scale 0 to 100, read-out: Plant response rating, Field Bindweed
Procedure, shortened: as §1

[3] = system: johnsongrass (Sorghum halepense); conditions: Sorghum halepense, pre-emergence, scale 0 to 100, read-out: Plant response rating, Johnsongrass
Procedure, shortened: as §1

soybean (Glycine max) = conditions: Glycine max, scale 0 to 100, read-out: Plant response rating, Soybean
Procedure, shortened: as §1

[4] = system: giant foxtail (Setaria faberii); conditions: Setaria faberi, pre-emergence, scale 0 to 100, read-out: Plant response rating, Foxtail, Giant
Procedure, shortened: as §1

[5] = system: arrowleaf sida (Sida rhombifolia); conditions: Sida rhombifolia, scale 0 to 100, read-out: Plant response rating, Arrowleaf Sida
Procedure, shortened: as §1

[6] = system: goosegrass (Eleusine indica); conditions: Eleusine indica, pre-emergence, scale 0 to 100, read-out: Plant response rating, Goosegrass
Procedure, shortened: as §1

[7] = system: barnyardgrass (Echinochloa crus-galli); conditions: Echinochloa crus-galli, scale 0 to 100, read-out: Plant response rating, Barnyardgrass
Procedure, shortened: as §1

[8] = system: surinam grass (Brachiaria decumbens); conditions: Urochloa decumbens, pre-emergence, scale 0 to 100, read-out: Plant response rating, Surinam Grass
Procedure, shortened: as §1

[9] = system: sandbur (southern sandbur, Cenchrus echinatus); conditions: Cenchrus echinatus, scale 0 to 100, read-out: Plant response rating, Sandbur
Procedure, shortened: as §1

[10] = system: velvetleaf (Abutilon theophrasti); conditions: Abutilon theophrasti, pre-emergence, scale 0 to 100, read-out: Plant response rating, Velvetleaf
Procedure, shortened: as §1

[11] = system: large (Lg) crabgrass (Digitaria sanguinalis); conditions: Digitaria sanguinalis, pre-emergence, scale 0 to 100, read-out: Plant response rating, Crabgrass, Large
Procedure, shortened: as §1

[12] = system: yellow nutsedge (Cyperus esculentus); conditions: Cyperus, pre-emergence, scale 0 to 100, read-out: Plant response rating, Nutsedge, Yellow
Procedure, shortened: as §1

[13] = system: hairy beggarticks (Bidens pilosa); conditions: Bidens pilosa, scale 0 to 100, read-out: Plant response rating, Beggarticks
Procedure, shortened: as §1

[14] = system: waterhemp (common waterhemp, Amaranthus rudis); conditions: Amaranthus tuberculatus, scale 0 to 100, read-out: Plant response rating, Waterhemp
Procedure, shortened: as §1

[15] = system: wild poinsettia (Euphorbia heterophylla); conditions: Euphorbia heterophylla, scale 0 to 100, read-out: Plant response rating, Poinsettia, Wild
Procedure, shortened: as §1

[16] = post-emergence, 16 g ai/ha Postemergence
[17] = post-emergence, 31 g ai/ha Postemergence
[18] = post-emergence, 62 g ai/ha Postemergence
[19] = post-emergence, 125 g ai/ha Postemergence
[20] = pre-emergence, 16 g ai/ha Preemergence
[21] = pre-emergence, 31 g ai/ha Preemergence
[22] = pre-emergence, 62 g ai/ha Preemergence
[23] = pre-emergence, 125 g ai/ha Preemergence

Fc1cccc(Oc2ncc(Cl)cn2)c1-c1cc(C(F)F)no1 [Compound 144, 5-chloro-2-[2-[3-(difluoromethyl)-5-isoxazolyl]-3-fluorophenoxy]pyrimidine]
20%: pest or weed control at 31 g/ha [7, 21] | pest or weed control at 62 g/ha [9, 18] | pest or weed control at 125 g/ha [9, 19] | pest or weed control at 62 g/ha ([15]; pre-emergence, Preemergence)
10%: plant injury at 31 g/ha (soybean (Glycine max); [21]) | pest or weed control at 16 g/ha [7, 16] | pest or weed control at 16 g/ha [9, 16] | pest or weed control at 31 g/ha [9, 21]
90%: pest or weed control at 125 g/ha [2, 19] | pest or weed control at 31 g/ha ([4]; 31 g ai/ha Preemergence)
35%: pest or weed control at 125 g/ha [15, 23]
50%: pest or weed control at 16 g/ha [1, 16] | pest or weed control at 31 g/ha [1, 17] | pest or weed control at 62 g/ha [7, 18] | pest or weed control at 62 g/ha ([9]; pre-emergence, Preemergence) | pest or weed control at 16 g/ha [15, 16] | pest or weed control at 31 g/ha [15, 17]
70%: pest or weed control at 16 g/ha [2, 16] | pest or weed control at 125 g/ha [2, 23] | pest or weed control at 125 g/ha ([3]; 125 g ai/ha Preemergence) | pest or weed control at 62 g/ha [7, 22] | pest or weed control at 16 g/ha [13, 16] | pest or weed control at 62 g/ha [13, 18] | pest or weed control at 62 g/ha [15, 18]
85%: pest or weed control at 125 g/ha [1, 19] | pest or weed control at 62 g/ha [1, 22]
100%: pest or weed control at 125 g/ha ([4]; 125 g ai/ha Preemergence) | pest or weed control at 16 g/ha [5, 16] | pest or weed control at 31 g/ha [5, 17] | pest or weed control at 62 g/ha [5, 18] | pest or weed control at 125 g/ha [5, 19] | pest or weed control at 31 g/ha [5, 21] | pest or weed control at 62 g/ha [5, 22] | pest or weed control at 125 g/ha [5, 23] | pest or weed control at 125 g/ha ([6]; 125 g ai/ha Preemergence) | pest or weed control at 125 g/ha [7, 23] | pest or weed control at 31 g/ha ([10]; 31 g ai/ha Preemergence) | pest or weed control at 125 g/ha ([10]; 125 g ai/ha Preemergence) | pest or weed control at 62 g/ha ([10]; Preemergence) | pest or weed control at 31 g/ha ([11]; 31 g ai/ha Preemergence) | pest or weed control at 62 g/ha ([11]; 62 g ai/ha Preemergence) | pest or weed control at 125 g/ha ([11]; 125 g ai/ha Preemergence) | pest or weed control at 16 g/ha [14, 16] | pest or weed control at 31 g/ha [14, 17] | pest or weed control at 62 g/ha [14, 18] | pest or weed control at 125 g/ha [14, 19] | pest or weed control at 31 g/ha [14, 21] | pest or weed control at 125 g/ha [14, 23] | pest or weed control at 62 g/ha ([14]; pre-emergence, Preemergence)
0%: pest or weed control at 16 g/ha [1, 20] | pest or weed control at 16 g/ha ([3]; 16 g ai/ha Preemergence) | pest or weed control at 31 g/ha ([3]; 31 g ai/ha Preemergence) | pest or weed control at 16 g/ha [7, 20] | pest or weed control at 16 g/ha ([8]; 16 g ai/ha Preemergence) | pest or weed control at 16 g/ha [9, 20] | pest or weed control at 16 g/ha ([12]; 16 g ai/ha Preemergence) | pest or weed control at 31 g/ha ([12]; 31 g ai/ha Preemergence) | pest or weed control at 125 g/ha ([12]; 125 g ai/ha Preemergence) | pest or weed control at 62 g/ha ([12]; Preemergence) | pest or weed control at 16 g/ha [13, 20] | pest or weed control at 31 g/ha [13, 21] | pest or weed control at 62 g/ha [13, 22] | pest or weed control at 125 g/ha [13, 23] | pest or weed control at 16 g/ha [15, 20] | pest or weed control at 31 g/ha [15, 21]
98%: plant injury at 62 g/ha (soybean (Glycine max); [18]) | pest or weed control at 16 g/ha [14, 20]
75%: pest or weed control at 31 g/ha [2, 17] | plant injury at 125 g/ha (soybean (Glycine max); [23]) | pest or weed control at 16 g/ha ([6]; 16 g ai/ha Preemergence) | pest or weed control at 125 g/ha [7, 19] | pest or weed control at 31 g/ha ([8]; 31 g ai/ha Preemergence) | pest or weed control at 62 g/ha ([8]; Preemergence) | pest or weed control at 125 g/ha [13, 19]
15%: pest or weed control at 16 g/ha ([4]; 16 g ai/ha Preemergence) | pest or weed control at 31 g/ha [9, 17]
95%: pest or weed control at 125 g/ha [1, 23] | plant injury at 31 g/ha (soybean (Glycine max); [17]) | plant injury at 125 g/ha (soybean (Glycine max); [19]) | pest or weed control at 62 g/ha ([4]; 62 g ai/ha Preemergence) | pest or weed control at 16 g/ha [5, 20] | pest or weed control at 62 g/ha ([6]; Preemergence) | pest or weed control at 125 g/ha [9, 23]
80%: pest or weed control at 62 g/ha [2, 18] | pest or weed control at 125 g/ha ([8]; 125 g ai/ha Preemergence) | pest or weed control at 16 g/ha ([10]; 16 g ai/ha Preemergence) | pest or weed control at 16 g/ha ([11]; 16 g ai/ha Preemergence)
65%: pest or weed control at 62 g/ha [2, 22] | plant injury at 16 g/ha (soybean (Glycine max); [16]) | pest or weed control at 125 g/ha [15, 19]
40%: pest or weed control at 16 g/ha [2, 20] | plant injury at 62 g/ha (soybean (Glycine max); pre-emergence, Preemergence)
60%: pest or weed control at 62 g/ha [1, 18] | pest or weed control at 31 g/ha [2, 21] | pest or weed control at 31 g/ha ([6]; 31 g ai/ha Preemergence) | pest or weed control at 31 g/ha [13, 17]
30%: pest or weed control at 31 g/ha [1, 21] | pest or weed control at 62 g/ha ([3]; Preemergence) | pest or weed control at 31 g/ha [7, 17]
